Where two headings read alike, the source gives them in different places.
Experiments:
caspases-3, -9 and PARP = assay: Western blot, cleavage of caspases-3, -9 and PARP in EU-1 cells; type: cell-based
Protocol: (§1) Cells were lysed in a buffer composed of 50 mM Tris, pH 7.6, 150 mM NaCl, 1% Nonidet P-40, 10 mM sodium phosphate, 10 mM NaF, 1 mM sodium orthovanadate, 2 mM phenylmethylsulfonyl fluoride (PMSF), […], 10 μg/mL leupeptin and 10 μg/mL pepstatin. After centrifugation, the clarified cell lysate was separated from the pellet of cell debris, and then incubated with 15 μL Protein G/Protein A-agarose and 1 μg of antibodies, overnight at 4° C. For the Western blot, the resulting cell lysates or immunoprecipitates were resolved by SDS-PAGE. They were then transferred to a nitrocellulose filter and probed with the specific antibodies as listed in the supplemental Materials section. Finally, proteins were visualized with a chemiluminescent detection system.

855 line = assay: WST cytotoxicity assay, 855 line; type: cell-based; conditions: read-out: Cancer cell cytotoxicity IC50
Protocol: (§2) The cytotoxic effect of MX 69 and MX69 analogs on cancer cells was determined using the water-soluble tetrazolium salt (WST) assay. Briefly, cells cultured in 96-well microtiter plates were treated with different concentrations of AQ-101 for a 20-h period. WST (25 μg/well) was then added and incubation continued for an additional 4 h, after which optical density (OD) was read with a microplate reader (test wavelength of 450 nm; reference wavelength of 620 nm).

697 cell line = assay: WST cytotoxicity assay, 697 cell line; type: cell-based; conditions: read-out: Cancer cell cytotoxicity IC50
Protocol: as §2

NB-1643 = assay: WST cytotoxicity assay, NB-1643; type: cell-based; conditions: Homo sapiens; NB-1643 line; read-out: Cancer cell cytotoxicity IC50
Protocol: (§3) This study used two ALL cell lines (EU-1 and EU-3) and three NB cell lines (NB-1643, SHEP1 and LA1-55N). All 5 cancer cell lines were established from pediatric ALL or NB patients and were well-characterized for their expression of MDM2 and p53-status, as reported previously. All cell lines were grown in standard culture medium (RPMI 1640 containing 10% FBS, 2 mmol/L L-glutamine, 50 U penicillin and 50 μg/mL streptomycin) at 37° C. in a humidified atmosphere containing 5% CO2.
as §2

p53 = p53 induction / expression (Western blot); type: cell-based; conditions: for p53 induction: words or +/− grades, key not given
Protocol: as §1

MYCN = MYCN inhibition; type: cell-based; conditions: MDM2 reduction
EU-1 = assay: WST cytotoxicity assay, cancer cell EU-1; type: cell-based, human
Outline: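 Pediatric ALL and NB lines grown in RPMI 1640 with 10% FBS at 37 °C, 5% CO2. Cells were exposed to a range of compound concentrations for 20 h, then WST (25 μg/well) was added for a further 4 h. OD read at 450 nm against a 620 nm reference.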

MDM2 RING protein [1] = molecular target: T1, MDM2 RING protein (Homo sapiens, UniProt Q00987); conditions: Gu et al. Cancer Cell 2016; cited from earlier work
T1 sequence (Q00987 438-479 limits assumed): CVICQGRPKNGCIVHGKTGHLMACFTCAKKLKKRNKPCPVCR

normal cells/tissues = conditions: Gu et al. Cancer Cell 2016; cited from earlier work
in vivo = conditions: mouse
855 luc = assay: WST cytotoxicity assay, 855 luc; type: cell-based; conditions: read-out: Cancer cell cytotoxicity IC50
Protocol: as §2

91-06 line = assay: WST cytotoxicity assay, 91-06 line; type: cell-based; conditions: no MDM2 and p53, read-out: Cancer cell cytotoxicity IC50
Protocol: as §2

93-10 line = assay: WST cytotoxicity assay, 93-10 line; type: cell-based; conditions: 93-10 line no MDM2 and p53; read-out: Cancer cell cytotoxicity IC50
Protocol: as §2

DAOY line = assay: WST cytotoxicity assay, DAOY line; type: cell-based; conditions: Homo sapiens; DAOY line with MDM2/no p53; read-out: Cancer cell cytotoxicity IC50
Protocol: as §2

MDM2 [2] = molecular target: T2, MDM2 (Homo sapiens, UniProt Q00987); assay: MDM2 reduction / expression (Western blot); type: cell-based
T2 construct: ubiquitination of endogenous MDM2 in EU-1 cells; endogenous in cells; host or cells: EU-1 (ALL) cells
T2 sequence (Q00987 whole entry): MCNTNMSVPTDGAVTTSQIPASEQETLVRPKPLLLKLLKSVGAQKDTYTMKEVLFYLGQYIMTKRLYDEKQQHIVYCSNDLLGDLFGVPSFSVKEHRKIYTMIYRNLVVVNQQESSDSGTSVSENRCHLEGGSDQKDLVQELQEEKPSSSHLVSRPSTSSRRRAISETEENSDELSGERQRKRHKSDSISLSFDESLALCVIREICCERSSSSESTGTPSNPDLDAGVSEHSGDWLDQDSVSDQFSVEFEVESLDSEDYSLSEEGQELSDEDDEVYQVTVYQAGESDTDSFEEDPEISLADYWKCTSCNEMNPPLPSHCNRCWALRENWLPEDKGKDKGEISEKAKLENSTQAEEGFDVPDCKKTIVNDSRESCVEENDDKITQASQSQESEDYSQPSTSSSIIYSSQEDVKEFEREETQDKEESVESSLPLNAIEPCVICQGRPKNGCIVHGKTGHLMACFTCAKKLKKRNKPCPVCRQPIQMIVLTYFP
Protocol: as §1

XIAP = XIAP inhibition / expression (Western blot); type: cell-based; conditions: EU-1 cells; dose-dependent
Protocol: as §1

MDM2 RING protein [3] = molecular target: T1, MDM2 RING protein; assay: Compound-protein binding (ITC) to MDM2 RING protein; conditions: MDM2 RING domain
Protocol: Isothermal titration calorimetry (ITC) assay was performed using the auto-iTC200 instrument (MicroCal, GE). MDM2 protein was loaded into a 96 DeepWell PP plate, and then compound was titrated stepwise into the protein sample cell using a syringe, for a total of 16 injections (except for the first injection, which was 0.4 μl). The equilibrium time between two adjacent injections was 210 s. The binding stoichiometry (n), binding constant (Kd), and thermodynamic parameters (ΔH and ΔS) were determined by fitting the titration curve to a one-site binding mode, using the Origin software provided by the manufacturer.

[4] = tested on: ALL cell lines EU-1 and EU-3; assay: WST cytotoxicity assay, ALL cell lines; type: cell-based; conditions: Homo sapiens, 48 h, read-out: IC50, cytotoxicity against ALL cell lines
Protocol: as §3
as §2, with “Briefly, cells cultured in 96-well microtiter plates were treated with different concentrations of AQ-101 for a 20-h period.” left out

[5] = tested on: NB cell lines NB-1643, SHEP1 and LA1-55N; assay: WST cytotoxicity assay, NB cell lines; type: cell-based; conditions: Homo sapiens, NB-1643, SHEP1, LA1-55N, 48 h, read-out: IC50, cytotoxicity against NB cell lines
Protocol: as §3
as §2, with “Briefly, cells cultured in 96-well microtiter plates were treated with different concentrations of AQ-101 for a 20-h period.” left out

LA1-55N = assay: WST cytotoxicity assay, LA1-55N; type: cell-based, human; conditions: line does not express normal p53
Protocol: as §3, §2

NB cell lines = assay: Colony formation assay, NB cell lines; type: cell-based, human
Protocol: A clonogenic assay was used to determine the effect of MX69 analogs on in vitro growth of NB and normal human hematopoietic cells, respectively. For NB1 colony formation assay, cells were harvested with treatment by trypsinization, producing a single-cell suspension, and then 200 cells were seeded into a 6-well plate and cultured for approximately 2 weeks. Colonies were stained with a mixture of 6.0% glutaraldehyde and 0.5% crystal violet for 30 min. Then carefully removed the staining mixture, rinsed with tap water and counted the colonies.

MDM2 [6] = molecular target: T2, MDM2; assay: IP-Western blot, ubiquitination of endogenous MDM2 in EU-1 cells; type: cell-based; conditions: 1 μM
Protocol: as §1

p21 and PUMA = assay: Western blot for p53 targets p21 and PUMA in EU-1 cells; type: cell-based
Protocol: as §1

XIAP mRNA = assay: Polysome analysis of XIAP mRNA in EU-1 cells; type: cell-based; conditions: 1 μM for 4 h
Protocol: Cells were incubated with 100 μg/mL cycloheximide (CHX) for 15 min to arrest polyribosome migration, and then lysed (in order to isolate cytoplasmic extracts) in a buffer containing 20 mM Tris-HCl at pH 8.0, 100 mM NaCl, 5 mM MgCl2, 0.5% Triton X-100, 500 U/mL RNAsin, and a cocktail of protease inhibitors. Fractionation was performed on a 15-45% (w/v) sucrose gradient at 39,000 rpm for 1 h (SW41Ti rotor). Fractions were collected by upward replacement in a fractionator (Isco, Lincoln, NE). The RNA from each fraction was subjected to quantitative PCR.

[7] = tested on: human normal bone marrow mononuclear (NBMM) cells; assay: Clonogenic assay for CFU-GM and BFU-E (normal hematopoiesis); type: cell-based; conditions: 1 μM, 14 days
Protocol: For colony formation of normal human hematopoiesis assay, a bottom layer of low-melting-point, 0.5% agarose (in RPMI 1640 medium plus 10% FBS) was poured into gridded 35 mm dishes and allowed to gel. Cells were cultured in a top layer of 0.35% agarose/medium at 37° C. in a humidified atmosphere containing 5% CO2. After 2-3 weeks, cultures were fixed with formalin and colonies scored.

SMILES: Cc1ccc(NS(=O)(=O)c2ccc3c(c2)C2OCCC2C(c2ccc(C(=O)C(C)C)cc2)N3)cc1C (centres unmarked) [McX69-102]
- Time after treatment at which cleavage of caspases-3, -9 and PARP can be detected (caspases-3, -9 and PARP): 8 h

SMILES: Cc1ccc(NS(=O)(=O)c2ccc3c(c2)C2NCC[C@H]2C(C2CCCCC2)N3)cc1C (some centres unmarked) [Compound 69L61]
- IC50 (855 line): 2.43 µM
- IC50 (697 cell line): 3.6 µM
- IC50 (NB-1643): 1.6 µM
- p53 induction (p53): No p53
- MYCN inhibition (MYCN): inhibition

SMILES: Cc1ccc(NS(=O)(=O)c2ccc3c(c2)[C@H]2C=CC[C@H]2[C@H](c2ccc(C(=O)O)cc2)N3)cc1C [MX69, reference compound]
- IC50 (EU-1; Homo sapiens, EU-1, EU-1, no other cell line named in the cell, read-out: Cancer cell (EU-1) cytotoxicity IC50): 7 µM
- Binding to the RING domain of MDM2 (MDM2 RING protein [1]): specifically binds to the RING domain of MDM2
- Toxicity on normal cells/tissues (normal cells/tissues): minimal toxicity
- MTD (in vivo): 200 mg/kg

SMILES: Cc1ccc(NS(=O)(=O)c2ccc3c(c2)C2OCC[C@H]2C(c2ccc(C(=O)C(C)C)cc2)N3)cc1C (some centres unmarked) [Compound 69L52, N-(3,4-dimethylphenyl)-4-(4-isobutyrylphenyl)-2,3,3a,4,5,9b-hexahydrofuran[3,2-c]quinolone-8-sulfonamide]
- IC50 (EU-1; EU-1, no other cell line named in the cell, read-out: Cancer cell (EU-1) cytotoxicity IC50): 1.1 to 1.4 µM
- IC50 (EU-1; Homo sapiens, EU-1, printed in the Mouse MTD column, control run of the cytotoxicity test, read-out: Value of the compound used as (positive) control alongside the row's compound): 0.46 µM
- IC50 (855 line): 0.74 µM
- IC50 (855 luc): 0.5 µM
- IC50 (697 cell line): 0.45 µM
- IC50 (NB-1643): 0.7 µM
- IC50 (91-06 line): 3.62 µM
- IC50 (93-10 line): 5.93 µM
- IC50 (DAOY line): 2.17 µM
- Time after treatment at which MDM2 and XIAP downregulation occurred (MDM2 [2]; EU-1 cells): 2 to 4 h
- MDM2 downregulation in presence of MG132 (MDM2 [2]; EU-1 cells, 1 μM for 8 h, then 10 μM MG132 4 h): blocked by MG132
- MDM2 expression (MDM2 [2]; EU-1 cells, dose-dependent): remarkable downregulation
- MDM2 reduction (MDM2 [2]; words or +/− grades, key not given): inhibition
- p53 expression (p53; EU-1 cells, accompanying MDM2 downregulation): increased expression
- p53 induction (p53): induction
- XIAP expression (XIAP): remarkable downregulation
- MDM2 binding affinity as compared with MX69 (MDM2 RING protein [3]): Increased MDM2 Binding Affinity
- IC50 [4]: 0.3 to 0.4 µM
- IC50 [5]: 0.5 to 1.2 µM
- Cytotoxicity to LA1-55N compared with other cell lines (LA1-55N): much less cytotoxicity
- Colony number and size as compared with controls (NB cell lines; NB cell lines): significant reduction
- Cell growth in colony formation assay (NB cell lines; all 3 NB cell lines, two weeks): potently inhibited cell growth
- Ubiquitination of endogenous MDM2 (MDM2 [6]): induced ubiquitination of endogenous MDM2
- p53 downstream targets p21 and PUMA (p21 and PUMA): activation
- Polyribosome association of XIAP mRNA (XIAP mRNA): downregulation in polyribosome association
- Cleavage of caspases-3, -9 and PARP compared with MX69 (caspases-3, -9 and PARP; 69L52 1 μM vs MX69 5 μM): stronger cleavage

SMILES: COc1cccc2c1C(=O)c1c(O)c3c(c(O)c1C2=O)C[C@@](O)(C(=O)CO)C[C@@H]3O[C@H]1C[C@H](N)[C@H](O)[C@H](C)O1 [Dox, doxorubicin]
- BFU-E colony numbers and size [7]: significantly reduced
- CFU-GM colony numbers and size [7]: significantly reduced

Reference: US20240059658A1 (Emory University, priority 2019, published 2024)
